Measurements from paper PMC3994220 (Nanoscale Research Letters, 2014).
Converted amounts (≈) assume the structure as drawn.

Assay: Paclitaxel plasma solubility (excess drug equilibrated in rodent plasma, HPLC)
Format: physicochemical
Settings: 37°C, 24 h equilibration
Description: where dC/dt is the dissolution rate, D is the solute diffusion coefficient, V is the volume of the dissolution medium, hd is the diffusion boundary thickness, S is the surface area of the solute, Cs is the saturation solubility of the solute, and Ct(t) is the bulk solute concentration. The stability of the crystalline nanosuspension was monitored for a period of 3 weeks for particle size, PXRD, and chemical stability (by HPLC). […] Excess drug was then removed by centrifugation which was followed by protein precipitation, and the concentration was measured by HPLC with an external standard.

- solubility at 24 h: 40 µg/mL (≈ 46.8 µM)
SMILES: CC(=O)O[C@H]1C(=O)[C@@]2(C)[C@H]([C@H](OC(=O)c3ccccc3)[C@]3(O)C[C@H](OC(=O)[C@H](O)[C@@H](NC(=O)c4ccccc4)c4ccccc4)C(C)=C1C3(C)C)[C@]1(OC(C)=O)CO[C@@H]1C[C@@H]2O [paclitaxel]
